Patent publication US20050032754A1, “5,6-Trans-2-alkylvitamin D derivatives” (Hiroaki TAKAYAMA, priority 2000, published 2005)

target: T1, Bovine thymus 1α,25-dihydroxyvitamin D3 receptor (VDR) (Bos taurus, UniProt Q28037); conditions: relative value, 1α,25-dihydroxyvitamin D3 taken as 100; X=(y/x)×100 from concentrations inhibiting 50% of [3H]-1α,25-dihydroxyvitamin D3 binding (0.1 nM) to VDR
T1 sequence (Q28037 1-426): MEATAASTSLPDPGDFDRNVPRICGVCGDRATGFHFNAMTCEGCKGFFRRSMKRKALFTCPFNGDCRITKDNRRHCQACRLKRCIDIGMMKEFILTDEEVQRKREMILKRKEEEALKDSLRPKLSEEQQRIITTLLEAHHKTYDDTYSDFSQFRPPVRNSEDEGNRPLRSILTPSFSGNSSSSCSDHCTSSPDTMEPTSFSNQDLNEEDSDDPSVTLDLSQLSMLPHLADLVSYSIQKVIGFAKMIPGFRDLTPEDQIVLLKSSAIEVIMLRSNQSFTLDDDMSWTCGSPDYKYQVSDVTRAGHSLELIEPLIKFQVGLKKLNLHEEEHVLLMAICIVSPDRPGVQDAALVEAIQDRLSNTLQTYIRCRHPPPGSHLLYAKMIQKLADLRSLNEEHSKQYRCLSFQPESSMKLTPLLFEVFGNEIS

Q: Which VDR binding property does the source give for C=C1/C(=C/C=C2\CCCC3(C)C2CCC3[C@H](C)CCCC(C)(C)O)C[C@@H](O)[C@@H](C)[C@@H]1O (stereo partly drawn) [Example 1, (5E,7E)-(1S,2R,3R)-2-methyl-9,10-seco-5,7,10(19)-cholestatriene-1,3,25-triol] here?
A: 8.6

Q: For C=C1/C(=C/C=C2\CCCC3(C)C2CCC3[C@H](C)CCCC(C)(C)O)C[C@@H](O)[C@H](C)[C@@H]1O (stereo partly drawn) [Example 2, (5E,7E)-(1S,2S,3R)-2-methyl-9,10-seco-5,7,10(19)-cholestatriene-1,3,25-triol], which VDR binding property is on record?
A: 0.4

Q: How did the VDR binding property turn out when C=C1/C(=C/C=C2\CCC[C@]3(C)[C@@H]([C@H](C)CCCC(C)(C)O)CC[C@@H]23)C[C@@H](O)[C@@H](C)[C@H]1O [Example 3, (5E,7E)-(1R,2R,3R)-2-methyl-9,10-seco-5,7,10(19)-cholestatriene-1,3,25-triol] was run?
A: 0.1

Q: C=C1C(=CC=C2CCCC3(C)C2CCC3C(C)CCCC(C)(C)O)CC(O)C(C)C1O [Example 4, (5E,7E)-(1R,2S,3R)-2-methyl-9,10-seco-5,7,10(19)-cholestatriene-1,3,25-triol] was tested. Which VDR binding property did it give?
A: < 0.01

Q: For C=C1/C(=C/C=C2\CCCC3(C)C2CCC3[C@H](C)CCCC(C)(C)O)C[C@H](O)[C@@H](C)[C@@H]1O (stereo partly drawn) [Example 5, (5E,7E)-(1S,2R,3S)-2-methyl-9,10-seco-5,7,10(19)-cholestatriene-1,3,25-triol], which VDR binding property is on record?
A: 0.04

Q: For C=C1/C(=C/C=C2\CCCC3(C)C2CCC3[C@H](C)CCCC(C)(C)O)C[C@H](O)[C@H](C)[C@@H]1O (stereo partly drawn) [Example 6, (5E,7E)-(1S,2S,3S)-2-methyl-9,10-seco-5,7,10(19)-cholestatriene-1,3,25-triol], which VDR binding property is on record?
A: 0.013

Q: How did the VDR binding property turn out when C=C1/C(=C/C=C2\CCCC3(C)C2CCC3[C@H](C)CCCC(C)(C)O)C[C@H](O)[C@@H](C)[C@H]1O (stereo partly drawn) [Example 7, (5E,7E)-(1R,2R,3S)-2-methyl-9,10-seco-5,7,10(19)-cholestatriene-1,3,25-triol] was run?
A: 0.03

Q: How did the VDR binding property turn out when C=C1/C(=C/C=C2\CCCC3(C)C2CCC3[C@H](C)CCCC(C)(C)O)C[C@H](O)[C@H](C)[C@H]1O (stereo partly drawn) [Example 8, (5E,7E)-(1R,2S,3S)-2-methyl-9,10-seco-5,7,10(19)-cholestatriene-1,3,25-triol] was run?
A: < 0.01

Q: With C=C1/C(=C/C=C2\CCCC3(C)C2CCC3[C@@H](C)CCCC(C)(C)O)C[C@@H](O)[C@@H](C)[C@@H]1O (stereo partly drawn) [Example 9, (5E,7E)-(1S,2R,3R,20S)-2-methyl-9,10-seco-5,7,10(19)-cholestatriene-1,3,25-triol] as the molecule, how does the VDR binding property read?
A: 45

Q: With C=C1/C(=C/C=C2\CCCC3(C)C2CCC3[C@@H](C)CCCC(C)(C)O)C[C@@H](O)[C@H](C)[C@@H]1O (stereo partly drawn) [Example 10, (5E,7E)-(1S,2S,3R,20S)-2-methyl-9,10-seco-5,7,10(19)-cholestatriene-1,3,25-triol] as the molecule, how does the VDR binding property read?
A: 1

Q: How did the VDR binding property turn out when C=C1C(=CC=C2CCCC3(C)C2CCC3C(C)CCCC(C)(C)O)CC(O)C(C)C1O [Example 11, (5E,7E)-(1R,2R,3R,20S)-2-methyl-9,10-seco-5,7,10(19)-cholestatriene-1,3,25-triol] was run?
A: 0.8

Q: C=C1/C(=C/C=C2\CCCC3(C)C2CCC3[C@@H](C)CCCC(C)(C)O)C[C@@H](O)[C@H](C)[C@H]1O (stereo partly drawn) [Example 12, (5E,7E)-(1R,2S,3R,20S)-2-methyl-9,10-seco-5,7,10(19)-cholestatriene-1,3,25-triol] was tested. Which VDR binding property did it give?
A: 0.03

Q: For C=C1/C(=C/C=C2\CCCC3(C)C2CCC3[C@@H](C)CCCC(C)(C)O)C[C@H](O)[C@@H](C)[C@@H]1O (stereo partly drawn) [Example 13, (5E,7E)-(1S,2R,3S,20S)-2-methyl-9,10-seco-5,7,10(19)-cholestatriene-1,3,25-triol], which VDR binding property is on record?
A: 0.5

Q: Which VDR binding property does the source give for C=C1/C(=C/C=C2\CCCC3(C)C2CCC3[C@@H](C)CCCC(C)(C)O)C[C@H](O)[C@H](C)[C@@H]1O (stereo partly drawn) [Example 14, (5E,7E)-(1S,2S,3S,20S)-2-methyl-9,10-seco-5,7,10(19)-cholestatriene-1,3,25-triol] here?
A: 0.2

Q: Which VDR binding property does the source give for C=C1/C(=C/C=C2\CCCC3(C)C2CCC3[C@@H](C)CCCC(C)(C)O)C[C@H](O)[C@@H](C)[C@H]1O (stereo partly drawn) [Example 15, (5E,7E)-(1R,2R,3S,20S)-2-methyl-9,10-seco-5,7,10(19)-cholestatriene-1,3,25-triol] here?
A: 0.2

Q: C=C1/C(=C/C=C2\CCCC3(C)C2CCC3[C@@H](C)CCCC(C)(C)O)C[C@H](O)[C@H](C)[C@H]1O (stereo partly drawn) [Example 16, (5E,7E)-(1R,2S,3S,20S)-2-methyl-9,10-seco-5,7,10(19)-cholestatriene-1,3,25-triol] was tested. Which VDR binding property did it give?
A: 0.08
